The assay deals with S. pneumoniae ATCC 49619. The assay can be described thus: Minimal inhibitory concentration (MIC) by microdilution method (CLSI M7-A7). The assay is classed as cell-based, Streptococcus pneumoniae. The conditions noted are these: Streptococcus pneumoniae, ATCC49619, cation-adjusted Mueller-Hinton Broth supplemented with 3% (v/v) lysed horse blood. An outline of the steps:
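Broth microdilution per CLSI M7-A7 in cation-adjusted Mueller-Hinton broth, supplemented with 3% (v/v) lysed horse blood for S. pneumoniae; MIC reported in mg/l.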

≈ marks a conversion by molar mass, not a printed value.

On to `CCNC(=O)Nc1cc2cc(NCc3ccc(-n4cnc(C)n4)cc3)cc(C)c2cn1.Cl` [Example 131, 1-ethyl-3-{8-methyl-6-[4-(3-methyl-[1,2,4]triazol-1-yl)-benzylamino]-isoquinolin-3-yl}-urea hydrochloride], for which inhibition of growth (MIC) required 4 µg/mL.

In the case of `CCNC(=O)Nc1cc2cc(NCCOCc3ccccc3)cc(C)c2cn1.Cl` [Example 132, 1-[6-(2-benzyloxy-ethylamino)-8-methyl-isoquinolin-3-yl]-3-ethyl-urea hydrochloride], the MIC (usually the lowest concentration that inhibits growth of the organism) turned out to be 8 µg/mL.

Take `CCNC(=O)Nc1cc2cc(NCC3CC3)cc(C)c2cn1.Cl` [Example 133, 1-{6-[(cyclopropylmethyl)-amino]-8-methyl-isoquinolin-3-yl}-3-ethyl-urea hydrochloride]: the MIC came out at 16 µg/mL.

In turn, `CCNC(=O)Nc1cc2cc(NCc3ccc4cc[nH]c4c3)cc(C)c2cn1.Cl` [Example 134, 1-ethyl-3-{6-[(1H-indol-6-ylmethyl)-amino]-8-methyl-isoquinolin-3-yl}-urea hydrochloride] registered an MIC of 16 µg/mL.

Take `CCNC(=O)Nc1cc2cc(NCc3ccc4ccn(C)c4c3)cc(C)c2cn1.Cl` [Example 135, 1-ethyl-3-{8-methyl-6-[((1-methyl-1H-indol-6-yl)methyl)-amino]-isoquinolin-3-yl}-urea hydrochloride]: the MIC stood at 16 µg/mL.

Consider `CCNC(=O)Nc1cc2cc(NCC(C)C)cc(C)c2cn1.Cl` [Example 136, 1-ethyl-3-(6-isobutylamino-8-methyl-isoquinolin-3-yl)-urea hydrochloride], for which the MIC was determined as 16 µg/mL.

Take `CCNC(=O)Nc1cc2cc(NCc3ccc(NC(C)=O)cc3)cc(C)c2cn1` [Example 137, N-(4-{[3-(3-ethyl-ureido)-8-methyl-isoquinolin-6-ylamino]-methyl}-phenyl)-acetamide]: the MIC amounted to 8 µg/mL (≈ 20.4 µM).

In turn, `Cc1ccc(-c2ccncc2)c2cc(NC(=O)NCCF)ncc12` [Example 138, 1-(2-fluoro-ethyl)-3-(8-methyl-5-pyridin-4-yl-isoquinolin-3-yl)-urea] returned an MIC of 1 µg/mL (≈ 3.08 µM).

The compound `Cc1ccc(-c2ccncc2)c2cc(NC(=O)NC3CC3)ncc12` [Example 139, 1-cyclopropyl-3-(8-methyl-5-pyridin-4-yl-isoquinolin-3-yl)-urea] displayed a minimum inhibitory concentration (MIC) of 4 µg/mL (≈ 12.6 µM).

Turning to `C=Cc1ccc(-c2ccncc2)c2cc(NC(=O)NCC)ncc12` [Example 140, 1-ethyl-3-[5-(pyridin-4-yl)-8-vinylisoquinolin-3-yl]-urea], 2 µg/mL (≈ 6.28 µM) was the least that counted as inhibitory (MIC).

The compound `CCNC(=O)Nc1cc2c(F)c(-c3cncc(C)c3)cc(C)c2cn1` [Example 141, 1-ethyl-3-[5-fluoro-8-methyl-6-(5-methylpyridin-3-yl)isoquinolin-3-yl]-urea] registered a minimum inhibitory concentration (MIC) of 0.5 µg/mL (≈ 1.48 µM).

`CCNC(=O)Nc1cc2c(F)c(-c3cccc(NC(C)=O)c3)cc(C)c2cn1` [Example 142, N-{3-[3-(3-ethyl-ureido)-5-fluoro-8-methyl-isoquinolin-6-yl]-phenyl}-acetamide]: the lowest concentration to inhibit growth (MIC) was 0.25 µg/mL (≈ 0.657 µM).

Compound `CCNC(=O)Nc1cc2c(F)c(-c3cnc4ccccc4c3)cc(C)c2cn1` [Example 143, 1-ethyl-3-[5-fluoro-8-methyl-6-(quinolin-3-yl)-isoquinolin-3-yl]-urea] returned a minimal inhibitory concentration (MIC) of 0.125 µg/mL (≈ 0.334 µM).

In turn, `CCNC(=O)Nc1cc2c(F)c(-c3ccc(S(N)(=O)=O)cc3)cc(C)c2cn1` [Example 144, 4-[3-(3-ethyl-ureido)-5-fluoro-8-methyl-isoquinolin-6-yl]-benzenesulfonamide] gave an MIC of 0.5 µg/mL (≈ 1.24 µM).

The compound `CCNC(=O)Nc1cc2cccc(Nc3cccnc3)c2cn1` [Example 145, 1-ethyl-3-[8-(pyridin-3-ylamino)-isoquinolin-3-yl]-urea] displayed an MIC of 1 µg/mL (≈ 3.25 µM).

Regarding `CCNC(=O)Nc1cc2cccc(Nc3ccccn3)c2cn1` [Example 146, 1-ethyl-3-[8-(pyridin-2-ylamino)-isoquinolin-3-yl]-urea], the MIC stood at 4 µg/mL (≈ 13 µM).

In turn, `CCNC(=O)Nc1cc2cccc(Oc3cccnc3)c2cn1` [Example 147, 1-ethyl-3-[8-(pyridin-3-yloxy)-isoquinolin-3-yl]-urea] yielded an MIC of 4 µg/mL (≈ 13 µM).

For `CCNC(=O)Nc1cc2cccc(Nc3cnccn3)c2cn1` [Example 148, 1-ethyl-3-[8-(pyrazin-2-ylamino)-isoquinolin-3-yl]-urea], the lowest concentration to inhibit growth (MIC) was 2 µg/mL (≈ 6.49 µM).

In turn, `CCNC(=O)Nc1cc2cccc(Nc3cncnc3)c2cn1` [Example 149, 1-ethyl-3-[8-(pyrimidin-5-ylamino)-isoquinolin-3-yl]-urea] came in with an MIC of 2 µg/mL (≈ 6.49 µM).

Regarding `CCNC(=O)Nc1cc2cccc(Nc3ccn4ccnc4c3)c2cn1` [Example 150, 1-ethyl-3-[8-(imidazo[1,2-a]pyridin-7-ylamino)-isoquinolin-3-yl]-urea], it took 4 µg/mL (≈ 11.5 µM) to inhibit growth (MIC).

Compound `CCNC(=O)Nc1cc2cccc(Nc3ccncn3)c2cn1` [Example 151, 1-ethyl-3-[8-(pyrimidin-4-ylamino)-isoquinolin-3-yl]-urea] returned an MIC of 4 µg/mL (≈ 13 µM).

In the case of `CCNC(=O)Nc1cc2cccc(Nc3ncccn3)c2cn1` [Example 152, 1-ethyl-3-[8-(pyrimidin-2-ylamino)-isoquinolin-3-yl]-urea], the minimal inhibitory concentration (MIC) was 4 µg/mL (≈ 13 µM).

`CCNC(=O)Nc1cc2cccc(Nc3ccncc3)c2cn1` [Example 153, 1-ethyl-3-[8-(pyridin-4-ylamino)-isoquinolin-3-yl]-urea] yielded an MIC of 8 µg/mL (≈ 26 µM).

`CCNC(=O)Nc1cc2cccc(Nc3nnc(C)o3)c2cn1` [Example 154, 1-ethyl-3-[8-(5-methyl-[1,3,4]oxadiazol-2-ylamino)-isoquinolin-3-yl]-urea] yielded an MIC of 8 µg/mL (≈ 25.6 µM).

Consider `CCNC(=O)Nc1cc2cccc(Nc3cccc(C)n3)c2cn1.Cl` [Example 155, 1-ethyl-3-[8-(6-methyl-pyridin-2-ylamino)-isoquinolin-3-yl]-urea hydrochloride], for which 2 µg/mL was the least that counted as inhibitory (MIC).

Compound `CCNC(=O)Nc1cc2cccc(Nc3ccc(C(N)=O)cn3)c2cn1.Cl` [Example 156, 6-[3-(3-ethyl-ureido)-isoquinolin-8-ylamino]-nicotinamide hydrochloride] registered an MIC of 2 µg/mL.

In turn, `CCNC(=O)Nc1cc2cccc(Nc3ccncc3F)c2cn1.Cl` [Example 157, 1-ethyl-3-[8-(3-fluoro-pyridin-4-ylamino)-isoquinolin-3-yl]-urea hydrochloride] came in with a minimal inhibitory concentration (MIC) of 2 µg/mL.

For `CCNC(=O)Nc1cc2cccc(Nc3cc(F)ccn3)c2cn1.Cl` [Example 158, 1-ethyl-3-[8-(4-fluoro-pyridin-2-ylamino)-isoquinolin-3-yl]-urea hydrochloride], inhibition of growth (MIC) required 2 µg/mL.

`CCNC(=O)Nc1cc2cccc(Nc3cncc(F)c3)c2cn1.Cl` [Example 159, 1-ethyl-3-[8-(5-fluoro-pyridin-3-ylamino)-isoquinolin-3-yl]-urea hydrochloride] displayed an MIC of 2 µg/mL.

`CCNC(=O)Nc1cc2cccc(Nc3cc(OC)ccn3)c2cn1.Cl` [Example 160, 1-ethyl-3-[8-(4-methoxy-pyridin-2-ylamino)-isoquinolin-3-yl]-urea hydrochloride] registered an MIC of 2 µg/mL.

Compound `CCNC(=O)Nc1cc2cccc(Nc3ccc(NC(C)=O)nc3)c2cn1.Cl` [Example 161, N-{5-[3-(3-ethyl-ureido)-isoquinolin-8-ylamino]-pyridin-2-yl}-acetamide hydrochloride] displayed an MIC of 2 µg/mL.

`CCNC(=O)Nc1cc2cccc(Nc3cc(C)ccn3)c2cn1.Cl` [Example 162, 1-ethyl-3-[8-(4-methyl-pyridin-2-ylamino)-isoquinolin-3-yl]-urea hydrochloride]: the MIC was determined as 2 µg/mL.

Compound `CCNC(=O)Nc1cc2cccc(Nc3ccc(C)cn3)c2cn1.Cl` [Example 163, 1-ethyl-3-[8-(5-methyl-pyridin-2-ylamino)-isoquinolin-3-yl]-urea hydrochloride] gave an MIC of 2 µg/mL.

The compound `CCNC(=O)Nc1cc2cccc(Nc3ccc(C)nc3)c2cn1.Cl` [Example 164, 1-ethyl-3-[8-(6-methyl-pyridin-3-ylamino)-isoquinolin-3-yl]-urea hydrochloride] came in with an MIC of 2 µg/mL.

With `CCNC(=O)Nc1cc2cccc(Nc3ccc(C(=O)OC)cn3)c2cn1.Cl` [Example 165, 6-[3-(3-ethyl-ureido)-isoquinolin-8-ylamino]-nicotinic acid methyl ester hydrochloride], 4 µg/mL was the least that counted as inhibitory (MIC).

On to `CCNC(=O)Nc1cc2cccc(Nc3cccc(C(=O)OC)n3)c2cn1.Cl` [Example 166, 6-[3-(3-ethyl-ureido)-isoquinolin-8-ylamino]-pyridine-2-carboxylic acid methyl ester hydrochloride], for which the MIC is 8 µg/mL.

Compound `CCNC(=O)Nc1cc2cccc(Nc3ncccc3C)c2cn1.Cl` [Example 167, 1-ethyl-3-[8-(3-methyl-pyridin-2-ylamino)-isoquinolin-3-yl]-urea hydrochloride] returned an MIC of 8 µg/mL.

Compound `CCNC(=O)Nc1cc2cccc(Nc3cccc(OC)c3)c2cn1` [Example 168, 1-ethyl-3-[8-(3-methoxy-phenylamino)-isoquinolin-3-yl]-urea] showed an MIC of 0.5 µg/mL (≈ 1.49 µM).

For `CCNC(=O)Nc1cc2cccc(Nc3ccccc3)c2cn1` [Example 169, 1-ethyl-3-(8-phenylamino-isoquinolin-3-yl)-urea], 1 µg/mL (≈ 3.26 µM) was the least that counted as inhibitory (MIC).

As for `CCNC(=O)Nc1cc2cccc(Nc3cccc(O)c3)c2cn1` [Example 170, 1-ethyl-3-[8-(3-hydroxy-phenylamino)-isoquinolin-3-yl]-urea], the MIC was 2 µg/mL (≈ 6.2 µM).

As for `CCNC(=O)Nc1cc2cccc(Nc3cccc(S(N)(=O)=O)c3)c2cn1` [Example 171, 3-[3-(3-ethyl-ureido)-isoquinolin-8-ylamino]-benzenesulfonamide], the lowest concentration to inhibit growth (MIC) was 2 µg/mL (≈ 5.19 µM).

Compound `CCNC(=O)Nc1cc2cccc(Nc3cccc(NC(C)=O)c3)c2cn1` [Example 172, N-{3-[3-(3-ethyl-ureido)-isoquinolin-8-ylamino]-phenyl}-acetamide] had an MIC of 2 µg/mL (≈ 5.5 µM).

`CCNC(=O)Nc1cc2cccc(Nc3ccc(NC(C)=O)cc3)c2cn1` [Example 173, N-{4-[3-(3-ethyl-ureido)-isoquinolin-8-ylamino]-phenyl}-acetamide] registered a minimal inhibitory concentration (MIC) of 2 µg/mL (≈ 5.5 µM).

Compound `CCNC(=O)Nc1cc2cccc(Nc3ccc(C#N)cc3)c2cn1` [Example 174, 1-[8-(4-cyano-phenylamino)-isoquinolin-3-yl]-3-ethyl-urea] had an MIC of 2 µg/mL (≈ 6.04 µM).
